Ends that are not written are not given here.
Experiments:
murine CTLL-2 cells = experiment: Murine cytotoxic T lymphocyte (CTLL-2) IL-2 dependent proliferation assay; type: cell-based; settings: for effect upon CTLL-2 cell proliferation: peptides coupled to BSA or control BSA, same conditions as the active peptide; for average inhibition of CTLL-2 proliferation: CS-1 5 experiments, CS-3 4 experiments; for average inhibition of CTLL-2 cell proliferation: 24 experiments; for ^3H-TdR incorporation, CPM ± SD of quadruplicate samples: 24 h;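 for all read-outs here: CTLL-2 cells, 4 x 10^3 per well in 96-well plates with RPMI plus 6% FBS, proliferation read as cell-bound radioactivity counted by liquid scintillation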
Procedure: Fifty μ1 of RPMI (6% FBS, 0% IL-2) containing 4 x 10^3 CTLL-2 cells was added to each well of a 96 well tissue culture plate (Falcon, Oxnard, CA). To each well was then added 50 μl of RPMI 1640 containing 3% human IL-2 50 μl of either RPMI or RPMI containing synthetic peptides. Cultures were then incubated for 24 hours at 37° C. in humidified 5% CO^2 Fifty μl of RPMI containing 1 μCi of ^3 H-thymidine (6.7 Ci/mmole; New England Nuclear, Boston, MA) was added to each well for the final 4 hours of cultures. Cells were collected by filtration onto glass fiber filters and incorporated radioactivity determined by liquid scintillation spectrophotometry.

human monocytes = experiment: Monocyte superoxide anion (O2^-) release; type: cell-based; settings: WGA stimulated, peptide coupled to BSA, mean ± SE
[1] = tested on: lymphocytes from two non-related individuals; experiment: Human two-way mixed leukocyte culture (MLC); type: cell-based; settings: coupled to BSA; for average inhibition of human two-way MLC: 4 experiments, 6-day culture; for average inhibition of human two-way MLC (mean±SEM): four experiments, final 24 h of 6 day culture
Procedure: Fifty μl of RPMI containing 1×10^5 lymphocytes from each of two non-related individuals was added to each well of a 96 well tissue culture plate. An additional 50 μl of RPMI was added and cultures were incubated at 37° C. in humidified 5% CO2 for 5 days. Fifty μl of RPMI containing either peptide or no addition was added for an additional 24 hr. During the final 4 hr of incubation each well was incubated with 25 μl of RPMI containing 0.5 μCi of ^3 H-thymidine and incorporated radionucleotide determined as above.

[2] = tested on: OKT3-stimulated human lymphocytes; experiment: Human lymphocyte proliferative response to OKT3 antibody; type: cell-based; settings: 5 experiments, 3 days, coupled to BSA
Procedure: (§1) One hundred μl of RPMI containing 2×10^5 lymphocytes was added to each well of a 96 well tissue culture plate. Fifty μl of RPMI containing either peptide or no addition was added for 2 hr at 37° C followed by the addition of 50 μl of RPMI containing nothing or Con A (40 μg/ml) or OKT3 antibody (1:1000 dilution). The cultures were incubated for 72 hr at 37° C. in 5% humidified CO2, pulsed with ^3 Hthymidine (0.,5 μCi/well, 4h.) and the incorporated radioactivity determined as described above. The concentration of OKT3 antibody used was previously determined to give 75-100% of a maximal response.

human lymphocytes = experiment: Binding of [^125 I]-CKS-17-BSA to cultured human lymphocytes; settings: >1000 fold excess of unlabeled BSA conjugate
Procedure: Human mononuclear cells were stimulated for 3 days with PHA, washed free of lectin, cultured for 10 days with 10% of a human IL-2 preparation (electronucleonics) washed and resuspended to 5×10^6 cells/ml in phosphate-buffered-saline, pH 7.2 (PBS) containing 0.1% BSA. […] Binding was terminated and unbounded [^125 I]-CKS-17-BSA removed by rapid (30 sec.) centrifugation of the cells through oil. The cell associated radioactivity was measured using a gamma radiation counter.

[3] = tested on: Balb/c and NIH/Swiss splenic lymphocytes; experiment: Murine two-way mixed leukocyte culture (MLC); type: cell-based; settings: coupled to BSA; for average inhibition of murine MLC response (mean±SEM): 3 day MLC, three experiments
Procedure: Fifty μl RPMI containing 1×10^5 Balb/c splenic lymphocytes and 50 μl containing 1×10^5 NIH/Swiss splenic lymphocytes were added to each well of a 96 well tissue culture plate. An additional 50 μl of RPMI containing peptide or no additives was added to each well and the cultures incubated for 3 to 5 days at 37° C in humidified 5% CO^2 Cultures were pulsed for 4 hr with 0.5 μCi of ^3 H-thymidine in 50 μl of RPMI before harvesting onto glass fiber filters.

[4] = tested on: human lymphocytes stimulated with Con A; experiment: Human lymphocyte proliferative response to Con A; type: cell-based; settings: coupled to BSA
Procedure: as §1, with “Fifty μl of RPMI containing either peptide or no addition was added for 2 hr at 37° C followed by the addition of 50 μl of RPMI containing nothing or Con A (40 μg/ml) or OKT3 antibody (1:1000 dilution).” left out

Balb/3T3 fibroblasts = experiment: Fibroblast proliferation, Balb/3T3; type: cell-based; settings: 2 or 3 days, dilutions 1:20, 1:40, 1:80
Procedure: (§2) CKS-17 was added at concentrations of 1:20, 1:40 and 1:80 to monolayers of Balb/3T3 or NIH/3T3 fibroblasts (ca. 1/3 confluent) in 96 well tissue culture plates. The cells were grown for an addition 2-3 days and pulsed with 1.0 μCi ^3 H-thymidine./well for the final 24 hours. The culture media was removed and the cells washed once before disruption with 0.5 ml of 0.5 N NaOH. The radiolabeled nucleic acids were then harvested onto glass fibe filters as described.

NIH/3T3 fibroblasts = experiment: Fibroblast proliferation, NIH/3T3; type: cell-based; settings: 2 or 3 days, dilutions 1:20, 1:40, 1:80
Procedure: as §2

[5] = tested on: T4^+ and T8^+ lymphocytes, B cells, NK cells and phagocytes; experiment: Preliminary double-labeling studies; type: binding
Immunization of rabbits = type: in vivo, rabbit
[6] = tested on: human lymphocytes stimulated with Con A; experiment: Human lymphocyte proliferative response to Con A; type: cell-based; settings: addition 24 hr. after Con A; coupled to BSA
[7] = Expt. 1, dilution 1:40, coupled to BSA
[8] = Expt. 1, dilution 1:80, coupled to BSA
[9] = Expt. 2, dilution 1:40, coupled to BSA
[10] = Expt. 2, dilution 1:80, coupled to BSA

Substance: Glu-Val-Val-Leu-Glnpartial Asn-Arg-Arg-Gly-Leu-Asp-Leu-Leu (chain 1 EVVLQ; chain 2 NRRGLDLL; printed: Glu-Val-Val-Leu-Gln; printed: Asn-Arg-Arg-Gly-Leu-Asp-Leu-Leu) [SP-9]
- effect upon CTLL-2 cell proliferation (murine CTLL-2 cells): little or no effect
- O2^- Release (human monocytes; dilution 1:20): 10.6 ± 0.3 nmoles/5 minues/1.2 × 10^6 mon
- O2^- Release (human monocytes; dilution 1:40): 12.4 ± 0.5 nmoles/5 minues/1.2 × 10^6 mon

Substance: LQARILAVERYLKDQQL [CS-3]
- average inhibition of CTLL-2 proliferation (murine CTLL-2 cells; ca. 3.75 μM, coupled to BSA): 3.5%
- average inhibition of CTLL-2 proliferation (murine CTLL-2 cells; ca. 7.5 μM, coupled to BSA): 23.2%
- average inhibition of CTLL-2 proliferation (murine CTLL-2 cells; ca. 15 μM, coupled to BSA): 81.8%
- average inhibition of human two-way MLC ([1]; 3.75 μM): 44.5%
- average inhibition of human two-way MLC ([1]; 7.5 μM): 74.0%
- average inhibition of human two-way MLC ([1]; 15 μM): 88.5%
- average inhibition of OKT3-stimulated lymphocyte proliferation ([2]; ca. 3.75 μM): 23.2%
- average inhibition of OKT3-stimulated lymphocyte proliferation ([2]; ca. 7.5 μM): 33.4%
- average inhibition of OKT3-stimulated lymphocyte proliferation ([2]; ca. 15 μM): 40.4%
- inhibition of [^125 I]-CKS-17-BSA binding by excess unlabelled material (human lymphocytes): binding could be inhibited

Substance: PVMHPHGAPPNHRPWGMKNLQAIK [SP-16]
- effect upon CTLL-2 cell proliferation (murine CTLL-2 cells): little or no effect
- O2^- Release (human monocytes; dilution 1:20): 9.8 ± 0.2 nmoles/5 minues/1.2 × 10^6 mon
- O2^- Release (human monocytes; dilution 1:40): 12.4 ± 0.6 nmoles/5 minues/1.2 × 10^6 mon

Substance: LQNRRGLDLLFLKEGGL [CKS-17]
- average inhibition of CTLL-2 cell proliferation (murine CTLL-2 cells; dilution 1:20, coupled to BSA): 49.6%
- average inhibition of CTLL-2 cell proliferation (murine CTLL-2 cells; dilution 1:40, coupled to BSA): 22.0%
- average inhibition of CTLL-2 cell proliferation (murine CTLL-2 cells; dilution 1:80, coupled to BSA): 9.4%
- short term toxic effect, trypan blue dye exclusion (murine CTLL-2 cells; CTLL-2 cells, coupled to BSA): not due to either a short term toxic effect
- % inhibition of CTLL-2 proliferation (murine CTLL-2 cells; Expt. 1, dilution 1:20 (ca. 7.3 μM), coupled to BSA): 76%
- ^3H-TdR incorporation, CPM ± SD of quadruplicate samples (murine CTLL-2 cells; Expt. 1, dilution 1:20, coupled to BSA): 15,255 ± 277 CPM
- % inhibition of CTLL-2 proliferation (murine CTLL-2 cells; [7]): 34%
- ^3H-TdR incorporation, CPM ± SD of quadruplicate samples (murine CTLL-2 cells; [7]): 42,827 ± 1386 CPM
- % inhibition of CTLL-2 proliferation (murine CTLL-2 cells; [8]): 7%
- ^3H-TdR incorporation, CPM ± SD of quadruplicate samples (murine CTLL-2 cells; [8]): 60,005 ± 1425 CPM
- % inhibition of CTLL-2 proliferation (murine CTLL-2 cells; Expt. 2, dilution 1:20 (ca. 7.3 μM), coupled to BSA): 64%
- ^3H-TdR incorporation, CPM ± SD of quadruplicate samples (murine CTLL-2 cells; Expt. 2, dilution 1:20, coupled to BSA): 10,950 ± 2171 CPM
- % inhibition of CTLL-2 proliferation (murine CTLL-2 cells; [9]): 24%
- ^3H-TdR incorporation, CPM ± SD of quadruplicate samples (murine CTLL-2 cells; [9]): 23,128 ± 3288 CPM
- % inhibition of CTLL-2 proliferation (murine CTLL-2 cells; [10]): 1%
- ^3H-TdR incorporation, CPM ± SD of quadruplicate samples (murine CTLL-2 cells; [10]): 29,980 ± 3490 CPM
- incubation required for maximal inhibition of CTLL-2 cell proliferation (murine CTLL-2 cells; ca. 15 μM, coupled to BSA): 16 h
- reversal of inhibition by increasing the concentration of IL-2 twenty-fold (murine CTLL-2 cells; coupled to BSA): could not be reversed
- effect upon the CTLL-2 cells (murine CTLL-2 cells; free (unconjugated) peptide): no effect
- average inhibition of murine MLC response (mean±SEM) ([3]; dilution 1:20): 94±2%
- average inhibition of murine MLC response (mean±SEM) ([3]; dilution 1:30): 74±4%
- average inhibition of murine MLC response (mean±SEM) ([3]; dilution 1:80): 48±9%
- effect on five-day murine MLC reactions ([3]; five-day MLC): blocked
- average inhibition of human two-way MLC (mean±SEM) ([1]; dilution 1:20): 92±2
- average inhibition of human two-way MLC (mean±SEM) ([1]; dilution 1:40): 64±11
- average inhibition of human two-way MLC (mean±SEM) ([1]; dilution 1:80): 18±3
- % inhibition of Con A stimulated proliferation ([4]; Expt. 1, dilution 1:10): 88%
- ^3H-TdR incorporation, CPM ± SD of quadruplicate samples ([4]; Expt. 1, dilution 1:10): 11,170 ± 3572 CPM
- % inhibition of Con A stimulated proliferation ([4]; Expt. 1, dilution 1:20): 58%
- ^3H-TdR incorporation, CPM ± SD of quadruplicate samples ([4]; Expt. 1, dilution 1:20): 38,132 ± 11,989 CPM
- % inhibition of Con A stimulated proliferation ([4]; Expt. 1, dilution 1:40): 58%
- ^3H-TdR incorporation, CPM ± SD of quadruplicate samples ([4]; Expt. 1, dilution 1:40): 38,085 ± 10,678 CPM
- % inhibition of Con A stimulated proliferation ([4]; Expt. 1, dilution 1:80): 48%
- ^3H-TdR incorporation, CPM ± SD of quadruplicate samples ([4]; Expt. 1, dilution 1:80): 46,815 ± 601 CPM
- % inhibition of Con A stimulated proliferation ([4]; Expt. 2, dilution 1:10): 66%
- ^3H-TdR incorporation, CPM ± SD of quadruplicate samples ([4]; Expt. 2, dilution 1:10): 34,601 ± 3914 CPM
- % inhibition of Con A stimulated proliferation ([4]; Expt. 2, dilution 1:20): 38%
- ^3H-TdR incorporation, CPM ± SD of quadruplicate samples ([4]; Expt. 2, dilution 1:20): 62,445 ± 3602 CPM
- % inhibition of Con A stimulated proliferation ([4]; Expt. 2, dilution 1:40): 17%
- ^3H-TdR incorporation, CPM ± SD of quadruplicate samples ([4]; Expt. 2, dilution 1:40): 83,154 ± 4422 CPM
- % inhibition of Con A stimulated proliferation ([4]; Expt. 2, dilution 1:80): 5%
- ^3H-TdR incorporation, CPM ± SD of quadruplicate samples ([4]; Expt. 2, dilution 1:80): 95,395 ± 45 CPM
- incorporation of ^3H-thymidine blocked ([4]; text: 1:20 dilution (ca. 7.5μM)): up to 88%
- effect upon ^3H-thymidine incorporation (Balb/3T3 fibroblasts): no effect
- effect upon ^3H-thymidine incorporation (NIH/3T3 fibroblasts): no effect
- O2^- Release (human monocytes; dilution 1:20): 6.0 ± 0.5 nmoles/5 minues/1.2 × 10^6 mon
- O2^- Release (human monocytes; dilution 1:40): 8.3 ± 0.5 nmoles/5 minues/1.2 × 10^6 mon
- inhibition of [^125 I]-CKS-17-BSA binding by excess unlabelled material (human lymphocytes): binding could be inhibited
- cell types bound [5]: binds to T4^+ and T8^+ lymphocytes, B cells, NK cells and phagocytes
- antibodies elicited by immunization of rabbits (Immunization of rabbits): elicited antibodies which react with free peptide and the native viral protein
- inhibition when peptide is added 24 hr. after the mitogen [6]: comparable levels of inhibition

Reference: patent US4822606A, “Immunosuppressive synthetic peptides and analogs thereof based on retroviral envelope sequences” (Duke University, priority 1986, dated 1989)
